# US20120213697A1, “VERSATILE NANOPARTICULATE BIOMATERIAL FOR CONTROLLED DELIVERY AND/OR CONTAINMENT OF THERAPEUTIC AND DIAGNOSTIC MATERIAL” (Albert Einstein College of Medicine of Yeshiva University, priority 2009, published 2012)
# Experiment: MRI of mice after tail vein injection, maximum pixel intensity of the kidney
# Type: in vivo, mouse
# Experimental: FIG. 2A-2B. MRI of a mouse injected with Magnevist® (gadopentetate dimeglumine) (A) and a mouse injected with nanoparticles loaded with gadopentetate dimeglumine (B). The left images are pre-injection, center images are 4 hours post injection, and right images are 24 hours post injection. […] A study was conducted to address the efficacy with which CA-loaded particles can provide MRI images. MRI images of mice were acquired pre-injection. Subsequently mice were injected (via the tail vein) with one of the following: i) a suspension of empty nanoparticles; ii) a suspension of nanoparticles loaded with Magnevist® (gadopentetate dimeglumine, a commercial Gd based MRI contrast reagent); and iii) Magnevist® solution. Mice were then imaged immediately after injection of each of these materials and again at 2 hours, 4 hours and 24 hours post injection. Maximum pixel intensity of the kidney was measured (relative to the background) at each time point using ImageJ software.
compound,measurement,setting,value
"CNC[C@H](O)[C@@H](O)[C@H](O)[C@H](O)CO.CNC[C@H](O)[C@@H](O)[C@H](O)[C@H](O)CO.O=C([O-])CN(CCN(CC(=O)[O-])CC(=O)O)CCN(CC(=O)[O-])CC(=O)O.[Gd+3] [Magnevist®, gadopentetate dimeglumine]",increase of maximum pixel intensity of the kidney,"4 hours post-injection, tail vein, one mouse each",32%
same,signal intensity throughout the GI tract,24 hour time point,not observed
same,MRI contrast (FIG. 2),24 hours post-injection,returned to pre-injection levels
same,change of maximum pixel intensity of the kidney,"24 hours post-injection, additional increase over 4 hours",returned to pre-injection levels
